These results are taken from patent US7524503B2, “Human cytomegalovirus (HCMV) cytotoxic T cell epitopes, polyepitopes compositions comprising same and diagnostic and prophylactic and therapeutic uses therefor” (priority 2001, dated 2009).

Where no end group is shown, it is not given here.

One test deals with T1, HLA A2 (Homo sapiens, UniProt P04439, D140Y/D185E/D98H/E176V/E277Q/G131W/G231S/I119V/I121R/I166T/I218V/L300P/L318F/N151K/N90K/P208A/P217A/Q86G/Q94H/R138H/R169H/T345S).
T1 construct: endogenous in cells; host or cells: T2 cells
The class given is cell-based. As to conditions: HLA A2 on T2 cells; relative increase in HLA expression vs no peptide at 26° C.

For test [1], the system named is PBMC from healthy HCMV seropositive donors. As to the kind of experiment: IFN-γ ELISPOT assay. The class given is cell-based, human. As to conditions: peptide 10 μg/ml. As to the method: ELISPOT assay was used to assess whether stimulation of PBMC from a large panel of seropositive donors with HCMV peptides could induce IFN-γ expression in T cells. Briefly, a 96-well nitrocellulose plate (Multiscreen, Millipore) was coated overnight at 4° C. with mouse monoclonal antibody anti-IFN-γ IgG1 (10 μg/ml; Mabtech Nacka, Sweden). The plate was then washed six times in Phosphate Buffered Saline (PBS) and blocked for 1 hour at 37° C. with PBS supplemented with 5% FCS. The blocking solution was removed and PBMC from healthy HCMV seropositive donors were added at a concentration of 2.5×10^5 cells per well in growth medium. These cells were incubated for 18 h at 37° C. in a 5% CO2 atmosphere in the presence of synthetic peptides from HCMV antigens (10 μg/ml). After incubation, the plate was washed three times with PBS supplemented with 0.05% Tween, followed by three washes with PBS alone. Biotinylated anti-IFN-γ (Mabtech, Nacka Sweden) detection antibody was added to each well at a final concentration of 1 μg/ml in PBS. The plates were incubated at room temperature in the dark for 4 h and then washed, as described above. Streptavidin-Alkaline phosphatase (Sigma) was added to each well at a final concentration of 1 μg/ml in PBS and incubated at room temperature in the dark for 2 h. After a final wash with PBS, the substrate, 5-bromo-4-chloro-3-indolyl phosphate and nitro blue tetrazolium, was added to each well and the plates incubated for 30 min at RT. Cells that produced IFN-γ in response to the presence of peptide were detected as purple spots on the nitrocellulose membrane of each well. The spots were counted automatically using a closed-circuit camera (CCD) and ImagePro image analysis software or automated ELISPOT reader (AID, Germany). The T cell precursor frequency for each peptide was based on the total number of PBMC in the well and the number of peptide-specific spots per well, over an average of 3 wells. The number of peptide-specific spots was also calculated by subtracting the negative control values, which consisted of PBMC without peptide (an average of 3 wells), from the test wells.
To determine whether memory CTL responses against the predictive HCMV potential epitopes could be detected in healthy seropositive virus carriers, we used the ELISPOT assay, which allows rapid identification of CTL epitopes without prolonged in vitro culture.
We tested epitopes that were restricted for HLA A1, A3, A24, A26, B7, B8, B27, B35 and B44 in ELISPOT assays, to determine whether memory T cell responses could be detected in healthy HLA-matched virus carriers. PBMC from a cohort of healthy virus carriers (Table 2) were stimulated with individual peptides and the cells that produced IFN-γ were detected. CTL epitopes that were restricted through either HLA A1, A3, A24, A26, B7, B8 or B27, were identified.
Thus, a total of 450 peptides were produced. ELISPOT assays were used to determine whether ex vivo memory T cell responses could be detected in a cohort of 14 healthy virus carriers (Table 2). PBMC were stimulated with individual peptides and the cells that produced IFN-γ were detected.

As to “NLFPYLVSA (human cytomegalovirus gB CTL epitope peptide)”, in the test with HLA A2, the “MSE (MHC stabilization efficiency)” value is recorded as “++ (++ = 100-199%)”. With “TMWCLTLFV (human cytomegalovirus UL18 CTL epitope peptide)”, the “MSE (MHC stabilization efficiency)” value in the test with HLA A2 was “++ (++ = 100-199%)”.

For the sequence TVQGQNLKY, the “ELISPOT Responses (SFC/10^6 PBMC)” value in test [1] (donor eleven) is 385 SFC/10^6 PBMC; in test [1] (donor sixteen) it was 251 SFC/10^6 PBMC.

For IGDQYVKVY, the “ELISPOT Responses (SFC/10^6 PBMC)” value in test [1] (donor eleven) was 565 SFC/10^6 PBMC; in test [1] (donor sixteen), 67 SFC/10^6 PBMC. As to “LDEGIMVVY (human cytomegalovirus gB CTL epitope peptide)”, the “ELISPOT Responses (SFC/10^6 PBMC)” value in test [1] (donor sixteen) is given as “TC(239) SFC/10^6 PBMC”. Regarding “IKEHMLKKY (human cytomegalovirus IE1 CTL epitope peptide)”, the “ELISPOT Responses (SFC/10^6 PBMC)” value in test [1] (donor sixteen) was “TC(4232) SFC/10^6 PBMC”. Consider “PLIPTTAVI (human cytomegalovirus pp150 CTL epitope peptide)”, for which the “MSE (MHC stabilization efficiency)” value in the test with HLA A2 is listed as “− (− = 0-50%)”. Turning to “VKESPGRCY (human cytomegalovirus gB CTL epitope peptide)”, in test [1] (donor sixteen), the “ELISPOT Responses (SFC/10^6 PBMC)” value is on record as “TC(51) SFC/10^6 PBMC”. Take “FLGARSPSL (human cytomegalovirus pp150 CTL epitope peptide)”: the “MSE (MHC stabilization efficiency)” value with HLA A2 is listed as “++ (++ = 100-199%)”.

As for ALFFFDIDL [reference compound], in the test with HLA A2, the “MSE (MHC stabilization efficiency)” value is recorded as “++ (++ = 100-199%)”. On to “YINRALAQI (human cytomegalovirus gB CTL epitope peptide)”, for which the “MSE (MHC stabilization efficiency)” value in the test with HLA A2 is on record as “++ (++ = 100-199%)”. With “FETSGGLVVFWQGIKQKSLV (human cytomegalovirus gB CTL epitope peptide)”, the entries for the “ELISPOT Responses (SFC/10^6 PBMC)” value in test [1] (donor four) and in test [1] (donor seven) were 23 SFC/10^6 PBMC and 185 SFC/10^6 PBMC, respectively. Turning to “TMYGGISLL (human cytomegalovirus IE1 CTL epitope peptide)”, the “MSE (MHC stabilization efficiency)” value with HLA A2 is “++ (++ = 100-199%)”. For the sequence TSAGRKRKSASSATACTSGV, the “ELISPOT Responses (SFC/10^6 PBMC)” value in test [1] (donor epsilon) is listed as “SC(138) SFC/10^6 PBMC”. Regarding QMWQARLTV, the “MSE (MHC stabilization efficiency)” value with HLA A2 is given as “+ (+ = 51-99%)”. “ILFDGHDLL (human cytomegalovirus gH CTL epitope peptide)”: the “MSE (MHC stabilization efficiency)” value with HLA A2 was “+++ (+++ = 200-300%)”. The same measure, in the same setting: next, “LLGALNLCL (human cytomegalovirus IE2 CTL epitope peptide)”: “++ (++ = 100-199%)”; “LLYPTAVDL (human cytomegalovirus gH CTL epitope peptide)”: “+++ (+++ = 200-300%)”; “LLSEFCRVL (human cytomegalovirus IE1 CTL epitope peptide)”: “++ (++ = 100-199%)”. For “LLMMSVYAL (human cytomegalovirus gH CTL epitope peptide)”, in the test with HLA A2, the “MSE (MHC stabilization efficiency)” value is reported as “++ (++ = 100-199%)”. Regarding ALTVSEHVSYVVTNQYLIKG, the “ELISPOT Responses (SFC/10^6 PBMC)” value in test [1] (donor four) is “MB(23) SFC/10^6 PBMC”. As to “HANTALVNAVNKLVYTGRLI (human cytomegalovirus pp150 CTL epitope peptide)”, the “ELISPOT Responses (SFC/10^6 PBMC)” value in test [1] (donor three) is given as “MW(122) SFC/10^6 PBMC”. On to “TLVIPSWHV (human cytomegalovirus pp71 CTL epitope peptide)”, for which the “MSE (MHC stabilization efficiency)” value in the test with HLA A2 is given as “++ (++ = 100-199%)”. Consider “GLLGASMDL (human cytomegalovirus pp28 CTL epitope peptide)”, for which the “MSE (MHC stabilization efficiency)” value with HLA A2 is given as “− (− = 0-50%)”.

As for “CVETMCNEY (human cytomegalovirus IE1 CTL epitope peptide) [reference compound]”, in test [1] (donor sixteen), the “ELISPOT Responses (SFC/10^6 PBMC)” value was “TC(4187) SFC/10^6 PBMC”. Regarding “ASSPSTGSGTPRBTSPTHPL (ASSPSTGSGTPRXTSPTHPL; not fully specified)”, in test [1] (donor eight), the “ELISPOT Responses (SFC/10^6 PBMC)” value is given as “JW(95) SFC/10^6 PBMC”. Regarding “RPSTPRAAV (human cytomegalovirus pp150 CTL epitope peptide)”, the “ELISPOT Responses (SFC/10^6 PBMC)” value in test [1] (donor four) was “MB(306) SFC/10^6 PBMC”.

For “NTDFRVLEL (human cytomegalovirus gB CTL epitope peptide)”, in test [1] (donor sixteen), the “ELISPOT Responses (SFC/10^6 PBMC)” value was “TC(1631) SFC/10^6 PBMC”. The same measure, in the same setting: next, CTPNVQTRRGRVKIDEVSRM: “TC(89) SFC/10^6 PBMC”; KDVALRHVVCAHELVCSMEN: “TC(50) SFC/10^6 PBMC”. Regarding “NIEFFTKNSAFPKTTNGCSQ (human cytomegalovirus IE1 CTL epitope peptide)”, the “ELISPOT Responses (SFC/10^6 PBMC)” value in test [1] (donor fifteen) is reported as “CP(1767) SFC/10^6 PBMC”. With “STSQKPVLGKRVATPHASAR (human cytomegalovirus pp150 CTL epitope peptide)”, in test [1] (donor three), the “ELISPOT Responses (SFC/10^6 PBMC)” value is “MW(215) SFC/10^6 PBMC”. For the sequence YRHTWDRHDEGAAQGDDDVW, in test [1] (donor epsilon), the “ELISPOT Responses (SFC/10^6 PBMC)” value was “SC(295) SFC/10^6 PBMC”. As for RVKIDEVSRMFRNTNRSLEY, the “ELISPOT Responses (SFC/10^6 PBMC)” value was determined as 306 SFC/10^6 PBMC in test [1] (donor epsilon) and 194 SFC/10^6 PBMC in test [1] (donor sixteen). Consider “THQLCPRSSDYRNMIIHAAT (human cytomegalovirus IE2 CTL epitope peptide)”, for which the results for the “ELISPOT Responses (SFC/10^6 PBMC)” value in test [1] (donor epsilon) and in test [1] (donor sixteen) were 173 SFC/10^6 PBMC and 124 SFC/10^6 PBMC, respectively. Regarding “PVDLLGALNLCLPLMQKFPK (human cytomegalovirus IE2 CTL epitope peptide)”, the “ELISPOT Responses (SFC/10^6 PBMC)” value is recorded as 111 SFC/10^6 PBMC in test [1] (donor epsilon) and 169 SFC/10^6 PBMC in test [1] (donor sixteen). For MLPLIKQEDIKPEPDFTIQY, the “ELISPOT Responses (SFC/10^6 PBMC)” value in test [1] (donor seven) is “SB(132) SFC/10^6 PBMC”.

As to “YRNMIIHAATPVDLLGALNL (human cytomegalovirus IE2 CTL epitope peptide)”, the figures for the “ELISPOT Responses (SFC/10^6 PBMC)” value in test [1] (donor eight), in test [1] (donor epsilon) and in test [1] (donor sixteen) were 132 SFC/10^6 PBMC, 229 SFC/10^6 PBMC and “TC(137) SFC/10^6 PBMC”, respectively. For the sequence “YEQHKITSY (human cytomegalovirus pp50 CTL epitope peptide)”, the “ELISPOT Responses (SFC/10^6 PBMC)” value in test [1] (donor five) is “CS(67) SFC/10^6 PBMC”. As for “GLDRNSGNY (human cytomegalovirus pp50 CTL epitope peptide)”, the “ELISPOT Responses (SFC/10^6 PBMC)” value worked out at 507 SFC/10^6 PBMC in test [1] (donor sixteen) and 345 SFC/10^6 PBMC in test [1] (donor three).

Take WQPAAQPKRRRHRQDALPGP: in test [1] (donor epsilon), the “ELISPOT Responses (SFC/10^6 PBMC)” value is “SC(615) SFC/10^6 PBMC”. Same read-out and setting: to LTVSGLAWTRQQNQWKEPDV belongs “SC(695) SFC/10^6 PBMC”. Consider PLGRPDEDSSSSSSSSCSSA, for which the “ELISPOT Responses (SFC/10^6 PBMC)” value in test [1] (donor sixteen) is “TC(46) SFC/10^6 PBMC”. With HRQDALPGPCIASTPKKHRG, the “ELISPOT Responses (SFC/10^6 PBMC)” value in test [1] (donor epsilon) was “SC(109) SFC/10^6 PBMC”. For “RGDPFDKNY (human cytomegalovirus pp50 CTL epitope peptide)”, the “ELISPOT Responses (SFC/10^6 PBMC)” value in test [1] (donor nine) was 720 SFC/10^6 PBMC; in test [1] (donor sixteen), 2739 SFC/10^6 PBMC. Consider KCSSGGGASVTSSHHGRGGF, for which the “ELISPOT Responses (SFC/10^6 PBMC)” value in test [1] (donor sixteen) is “TC(54) SFC/10^6 PBMC”.

Regarding “RRKMMYMCYRNIEFFTKNSA (human cytomegalovirus IE1 CTL epitope peptide)”, in test [1] (donor fifteen), the “ELISPOT Responses (SFC/10^6 PBMC)” value is reported as “CP(632) SFC/10^6 PBMC”. With “ATSTGDVVY (human cytomegalovirus gB CTL epitope peptide)”, the “ELISPOT Responses (SFC/10^6 PBMC)” value in test [1] (donor sixteen) was “TC(239) SFC/10^6 PBMC”.

For “DEEEAIVAY (human cytomegalovirus IE1 CTL epitope peptide)”, the “ELISPOT Responses (SFC/10^6 PBMC)” value in test [1] (donor sixteen) is listed as “TC(3903) SFC/10^6 PBMC”. For the sequence PRVTSPTHPLSQMNHPPLPD, the “ELISPOT Responses (SFC/10^6 PBMC)” value in test [1] (donor eight) worked out at 52 SFC/10^6 PBMC; in test [1] (donor sixteen), 96 SFC/10^6 PBMC.

With “TENGSFVAGY (human cytomegalovirus UL18 CTL epitope peptide)”, the “ELISPOT Responses (SFC/10^6 PBMC)” value in test [1] (donor five) is given as “CS(283) SFC/10^6 PBMC”.
